Data published in patent US20040038946A1, “Fullerene-based drugs targeted to bone” (priority 2003, published 2004).
Read-outs that look alike come from different tables or passages of the source.

Key:
[1] = Constant composition HAP crystal growth inhibition; settings: for Rate of HAP crystal growth: 37 °C, uninhibited rate 9.09; for Reduction of HAP crystal growth rate: concentration of 3.1×10^-5 M
Description: Hydroxyapatite seed crystals were prepared from calcium nitrate and potassium dihydrogen phosphate, as detailed elsewhere. The specific surface area, 34.9 m2 g-1, was determined by BET nitrogen adsorption using a 30/70 N2/He mixture (Monosorb, Quantachrome Corp). HAP crystals in the form of a suspension in water (41.8 g L-1) were used for the crystal growth experiments.
Solutions were prepared using triply distilled carbon dioxide-free water and filtered before use through washed 0.22 μm filters (Millipore, Bedford, Mass.). Calcium concentrations were determined either complexometrically by EDTA titration with Eriochrome Black-T as indicator, or by atomic absorption (Perkin-Elmer, model 3100, Norwich, Conn.). Carbon dioxide-free potassium hydroxide solutions were prepared from washed Reagent grade pellets in a nitrogen atmosphere.
Crystal growth experiments were made in magnetically-stirred water-jacketed Pyrex vessels at 37.0±0.05° C. with ionic strength, I=0.15 mol L^−1, adjusted by the addition of sodium chloride. Supersaturated solutions were prepared by introducing calcium chloride solution, followed by potassium dihydrogen phosphate solution. The pH was adjusted to the required value by the slow addition of potassium hydroxide solutions. During the reactions, carbon dioxide was excluded by bubbling with presaturated nitrogen gas. After equilibration, 0.5 mL of the HAP slurry was introduced to initiate the reaction. Since the nucleation and growth of crystals consume solution lattice ions, the lowering of pH was used to trigger the addition of two titrant solutions that served to maintain constant the pH, the concentrations of calcium and phosphate and the ionic strength of the solution. A glass electrode (Orion, model 9101), standardized using two NBS buffer solutions at pH=7.386 and 4.028 at 37° C., was used to control titrant addition through a potentiostat. The total calcium concentration in all experiments was 6.00×10^−4 mol L^−1 with a calcium/phosphate molar ratio of 1.67, so as to achieve a supersaturation with respect to HAP of σ=5.55 (as defined in Eq. (1)), as computed from mass balance, proton dissociation, electroneutrality, and equilibrium expressions involving calcium and phosphate species.
In Eq. (1), v is the number of ions per formula unit of precipitating phase and IP and KSO are, respectively, the ionic and solubility products of HAP.
During the reactions, samples were withdrawn periodically, filtered (0.22 μm Millipore filter) and analyzed for calciwn by atomic absorption and for phosphate spectrophotometrically (Varian, Cary 210) as the phosphovanadomolybdate complex in order to verify the constancy of the solution composition. Solid phases were examined by X-ray powder diffraction, XRD, (Siemens Nicolet/Nic spectrometer, CuK radiation with Ni filter=1.540; 2 from 3o to 45o), by scanning electron microscopy (SEM at 20 kV; JEOL JSM-5300, Noran Instrumental Inc. Middleton, Wis.) and by diffuse reflectance infared fourier transform spectroscopy (FTR, Perkin Elmer 1760×Fr-IR spectrometer). Plots of mineralization were calculated from plots of titrant volumes as a function of time as described previously.
It is quite well established that strong inhibitors of crystal growth, such as the phosphonates, act by blocking, through adsorption, active growth sites at the crystal surfaces. Commonly, inhibition kinetics data are interpreted in terms of a simple Langmuir adsorption model. Assuming that the adsorbed fullerene molecules occupy a fraction, θ, of the active growth sites, thereby preventing them from participating in the growth, the growth rate R can be written in terms of the uninhibited rate Ro (Eq. (2)): […]

[2] = cited from earlier work
[3] = Concentration 1.0 × 10^−6 mol/L

4,4-bisphosphono-2-(polyhdroxyl-1,2-dihdro-1,2-methanofullerene[60]-61-carboxamido)butyric Acid [C60(OH)16AMBP]
Rate of HAP crystal growth ([1]; C60(OH)16AMBP 0.39 × 10^−6 mol L^−1): 7.67 10^−8 mol min^−1 m^−2
Rate of HAP crystal growth ([1]; C60(OH)16AMBP 0.77 × 10^−6 mol L^−1): 6.51 10^−8 mol min^−1 m^−2
Rate of HAP crystal growth ([1]; C60(OH)16AMBP 1.16 × 10^−6 mol L^−1): 4.55 10^−8 mol min^−1 m^−2
Rate of HAP crystal growth ([1]; C60(OH)16AMBP 1.54 × 10^−6 mol L^−1): 3.77 10^−8 mol min^−1 m^−2
Rate of HAP crystal growth ([1]; C60(OH)16AMBP 1.93 × 10^−6 mol L^−1): 2.83 10^−8 mol min^−1 m^−2
Rate of HAP crystal growth ([1]; C60(OH)16AMBP 2.32 × 10^−6 mol L^−1): 2.46 10^−8 mol min^−1 m^−2
Rate of HAP crystal growth ([1]; C60(OH)16AMBP 2.7 × 10^−6 mol L^−1): 1.92 10^−8 mol min^−1 m^−2
Rate of HAP crystal growth ([1]; C60(OH)16AMBP 3.09 × 10^−6 mol L^−1): 1.57 10^−8 mol min^−1 m^−2
Rate of HAP crystal growth ([1]; C60(OH)16AMBP 3.47 × 10^−6 mol L^−1): 1.23 10^−8 mol min^−1 m^−2
Percent Reduction in Growth Rate [1, 3]: 50%
Percent Reduction in Growth Rate ([1]; Concentration 3.5 × 10^−6 mol/L): 87%
Reduction of HAP crystal growth rate [1]: 87%

Fullerenol[60] [C60(OH)30]
Rate of HAP crystal growth ([1]; C60(OH)30 0.41 × 10^−6 mol L^−1): 8.31 10^−8 mol min^−1 m^−2
Rate of HAP crystal growth ([1]; C60(OH)30 0.81 × 10^−6 mol L^−1): 7.8 10^−8 mol min^−1 m^−2
Rate of HAP crystal growth ([1]; C60(OH)30 1.22 × 10^−6 mol L^−1): 6.55 10^−8 mol min^−1 m^−2
Rate of HAP crystal growth ([1]; C60(OH)30 1.63 × 10^−6 mol L^−1): 5.94 10^−8 mol min^−1 m^−2
Rate of HAP crystal growth ([1]; C60(OH)30 2.03 × 10^−6 mol L^−1): 5.7 10^−8 mol min^−1 m^−2
Rate of HAP crystal growth ([1]; C60(OH)30 2.44 × 10^−6 mol L^−1): 4.65 10^−8 mol min^−1 m^−2
Rate of HAP crystal growth ([1]; C60(OH)30 2.85 × 10^−6 mol L^−1): 4.07 10^−8 mol min^−1 m^−2
Rate of HAP crystal growth ([1]; C60(OH)30 3.25 × 10^−6 mol L^−1): 3.97 10^−8 mol min^−1 m^−2
Rate of HAP crystal growth ([1]; C60(OH)30 3.66 × 10^−6 mol L^−1): 3.85 10^−8 mol min^−1 m^−2
Rate of HAP crystal growth ([1]; C60(OH)30 4.07 × 10^−6 mol L^−1): 2.64 10^−8 mol min^−1 m^−2
Rate of HAP crystal growth ([1]; C60(OH)30 4.47 × 10^−6 mol L^−1): 2.49 10^−8 mol min^−1 m^−2
Percent Reduction in Growth Rate [1, 3]: 28%
Affinity Constant ([1]; Langmuir adsorption model, slope of Ro/R versus concentration): 414000 L/mol
Reduction of HAP crystal growth rate [1]: 58%

CC(O)(P(=O)(O)O)P(=O)(O)O [CH3C(OH)[P(O)(OH)2]2, 1-hydroxyethylidene-1,1-diphosphonic acid]
Percent Reduction in Growth Rate [2, 3]: 69^ref 29%
Affinity Constant [2]: 13.3 × 10^5 ref 29 L mol^−1
